Source: US4977152A, “Novel tricyclic derivatives which are agonists of cholinergic receptors, and drugs in which they are present” (Societe Anonyme: Sanofi, priority 1986, dated 1990)
Substitutions are numbered along the chain they refer to. Where a name gives a salt, the structure may show the parent alone. Read-outs that look alike come from different tables or passages of the source.

Columns and labels:
[1] = molecular target: T1, M1-type muscarinic cholinergic receptor (Rattus norvegicus, UniProt P08482); test: Test for affinity for the M1-type muscarinic cholinergic receptor: displacement of [3H]pirenzepine on rat hippocampus homogenate; assay type: binding; details: for IC50: rat hippocampus homogenate, 1 nM [3H]PZ, 2 h at 4° C., pH 7.40; for r = (M2 /M1): ratio of IC50 M2 (3H-NMS, guinea-pig ileum) to IC50 M1 (3H-pirenzepine, rat hippocampus)
T1 sequence (P08482 1-460): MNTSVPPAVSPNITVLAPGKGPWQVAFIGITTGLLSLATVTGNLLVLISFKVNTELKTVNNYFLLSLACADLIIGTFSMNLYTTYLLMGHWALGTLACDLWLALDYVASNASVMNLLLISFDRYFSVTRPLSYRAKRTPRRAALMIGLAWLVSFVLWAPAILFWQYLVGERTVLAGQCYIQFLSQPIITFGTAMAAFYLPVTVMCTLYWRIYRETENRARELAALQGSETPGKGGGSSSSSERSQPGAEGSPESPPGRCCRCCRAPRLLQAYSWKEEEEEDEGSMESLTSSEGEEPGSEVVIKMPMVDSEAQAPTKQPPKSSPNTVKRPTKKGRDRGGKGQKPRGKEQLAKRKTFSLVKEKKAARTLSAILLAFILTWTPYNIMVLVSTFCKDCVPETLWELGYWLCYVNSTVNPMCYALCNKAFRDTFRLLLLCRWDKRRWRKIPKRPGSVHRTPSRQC
Excerpt: (§1) The M1 -type receptors are concentrated in certain areas of the brain, such as the hippocampus, the cerebral cortex and the striatum, and also in the sympathetic ganglia. These binding sites can be selectively labeled with [^3 H]pirenzepine ([^3 H]PZ). The M2 -type receptors predominate in the heart and ileum and can be labeled with [^3 H]N-methylscopolamine ([^3 H]NMS). To determine the selectivity of our molecules towards the M1 and M2 sites, we studied their interaction in vitro with [^3 H]PZ and [^3 H]NMS bound with a high affinity to membranes of rat hippocampus and membranes of smooth muscle of guinea-pig ileum, respectively.
The interaction of the molecules with M1 -type muscarinic receptors was studied by in vitro measurement, on a homogenate of rat hippocampus, of the displacement of tritiated pirenzepine ([^3 H]PZ) from its specific binding sites. Aliquots (10 μl) of a 5% (w/v) homogenate of rat hippocampus in an Na2 HPO4 buffer (50 mM, pH 7.40) are incubated for 2 h at 4° C. in the presence of [^3 H]pZ ([…]; final concentration: 1 nM) and increasing concentrations of products to be studied. The final volume is 2 ml. The reaction is stopped by centrifugation for 10 min at 50,000 × g. After decantation and washing of the residues, the bound radioactivity is counted by liquid scintillation. The non-specific binding is determined in the presence of 10 μmol/l of atropine sulfate. The 50% inhibitory concentration (IC50) is determined graphically (Ref.: Watson J. D., Roeskoe W. R. and Yamamura H.1., Life Sci., 31, 2019-2029, 1982).
(§2) Table 4 indicates the affinities of the products of the invention for M1 and M2 receptors. The results are expressed as 50% inhibitory concentrations (IC50), i.e. the concentration (in μM) which causes a 50% displacement placement of the tritiated ligand bound to the membrane receptors. The IC50 for displacement of ^3 H-pirenzepine represents the affinity for the M1 receptor; the IC50 for displacement of 3H-NMS represents the affinity for the M2 receptor.

[2] = molecular target: T2, M2-type muscarinic cholinergic receptor (Cavia porcellus, UniProt H0VRN8); test: Test for affinity for the M2-type muscarinic cholinergic receptor: displacement of [3H]N-methylscopolamine on smooth muscle of guinea-pig ileum; assay type: binding; details: guinea-pig ileum smooth muscle homogenate, 0.3 nM [3H]NMS, 20 min at 30° C., pH 7.5
T2 construct: on a homogenate of smooth muscle of guinea-pig ileum; from tissue; host or cells: guinea-pig ileum smooth muscle homogenate
T2 sequence (H0VRN8 1-466): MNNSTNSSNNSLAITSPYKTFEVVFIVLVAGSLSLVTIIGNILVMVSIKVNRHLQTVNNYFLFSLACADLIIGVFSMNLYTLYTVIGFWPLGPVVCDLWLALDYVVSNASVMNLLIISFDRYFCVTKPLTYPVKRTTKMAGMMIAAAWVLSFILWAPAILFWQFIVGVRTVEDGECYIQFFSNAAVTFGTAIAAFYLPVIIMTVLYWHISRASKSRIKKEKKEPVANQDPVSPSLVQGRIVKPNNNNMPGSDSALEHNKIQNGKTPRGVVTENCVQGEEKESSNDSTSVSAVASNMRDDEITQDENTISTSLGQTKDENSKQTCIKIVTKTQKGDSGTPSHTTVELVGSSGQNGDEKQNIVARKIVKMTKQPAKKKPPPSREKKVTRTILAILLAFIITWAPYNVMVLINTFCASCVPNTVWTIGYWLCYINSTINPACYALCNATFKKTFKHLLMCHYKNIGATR
Excerpt: as §1
The interaction with M2 -type muscarinic receptors was studied by in vitro measurement, on a homogenate of smooth muscle of guinea-pig ileum, of the displacement of tritiated N-methylscopolamine ([^3 H]NMS) from its specific binding sites. Aliquots (50 μl) of a 0.625% (w/v) homogenate of smooth muscle of guinea-pig ileum in MEPES buffer (20 mM) containing NaCl (100 mM) and MgCl2 (10 mM) (final pH: 7.5) are incubated for 20 min at 30° C. in the presence of [^3 H]NMS ([…]; final concentration: 0.3 nM) and increasing concentrations of products to be tested. The final volume is 1 ml. The reaction is stopped by centrifugation for 5 min at 15,000 × g. The non-specific binding is determined in the presence of 10 μmol/l of atropine sulfate (Ref.: Hammer R., Berrie C. P., Birdsall N. I. M., Burgen A. S. V. and Hulme E. C., Nature, 283, 90-92, 1980; Hulme E. C., Birdsall N.1.M., Burgen A. S. V. and Mettha P., Mol. pharmacol., 14, 737-750, 1978).
as §2

[3] = molecular target: T3, M1 central muscarinic cholinergic receptors (Mus musculus, UniProt P12657); test: Antagonism of rotational behavior induced by intrastriatal injection of pirenzepine in mice; assay type: in vivo, mice (female, Swiss, CD 1); details: ip, read-out: Pirenzepine antagonism ED50
T3 construct: The intrastriatal injection of PZ into mice induces rotational behavior; from tissue; host or cells: right striatum of living female mice (Swiss, CD 1)
T3 sequence (P12657 1-460): T1 sequence (P08482 1-460) with S309P
Description: Pirenzepine (PZ) is a specific antagonist of M1 central muscarinic cholinergic receptors. The intrastriatal injection of PZ into mice induces rotational behavior. The antagonism of this behavior by the products according to the invention was studied.
The products according to the invention are injected intraperitoneally (i.p.) after solubilization in distilled water or suspension in a 5% solution of gum arabic. The control animals receive an injection of the pure solvent under the same conditions.
The animals used are female mice (Swiss, CD 1, Charles River, France) with a body weight of between 25 and 30 grams.
Pirenzepine is dissolved in a phosphate buffer; the pH of the solution is 6.
The products to be studied or their solvents are injected intraperitoneally, in a volume of 0.4 ml per 20 g of body weight, 15 minutes before a direct injection of pirenzepine at a dose of […] into the right striatum of the mouse, according to the method described by p.
The number of contralateral rotations (rotations in the opposite direction to the side injected) was counted for three 2-minute periods after the injection of pirenzepine: minutes 2 to 4, 8 to 10 and 13 to 15. Each treatment includes 3 to 4 doses and 10 animals per dose. For each treatment, the total number of rotations and the percentage antagonism compared with the control group are calculated.

[4] = mice, i.p. 15 minutes before intrastriatal pirenzepine, 50% reduction in number of rotations

Compound	IC50 [1] [nM]	r = (M2 /M1) [1]	IC50 [2] [nM]	ED50 [3, 4] [mg/kg]	ED50 [3] [mg/kg]
CCN(CC)CCNc1cc2ccc3ccccc3c2nn1.Cl.Cl [SR 96055 A, 3-(2-Diethylaminoethylamino)benzo[h]cinnoline dihydrochloride]	320	53	17000		3
CCN(CC)CCSc1cc2c(nn1)-c1ccccc1CC2.Cl [SR 95743 A, 3-(2-Diethylaminoethylthio)-5,6-dihydrobenzo[h]cinnoline hydrochloride]	700	14	10000		8
Cc1cc2c(cc1C)-c1nnc(NCCN(C(C)C)C(C)C)cc1CCC2 [SR 44664 A]	180	11	2000	3	
Cl.Cl.O=[N+]([O-])c1cccc2c1CCCc1cc(NCCN3CCOCC3)nnc1-2 [SR 96100 A, 3-(2-Morpholinoethylamino)-8-nitro-6,7-dihydro-5H-benzocyclohepta[5,6-c]pyridazine dihydrochloride]	400	110	44000		
CCN(CC)CCNc1cc2c(nn1)-c1cc(C)c(C)cc1CCCC2.Cl.Cl [SR 44703 A, 3-(2-Diethylaminoethylamino)-10,11-dimethyl-5,6,7,8-tetrahydrobenzocycloocta[5,6-c]pyridazine dihydrochloride]	100	40	4000		
Cl.Cl.Fc1ccc2c(c1)CCCc1cc(NCCN3CCOCC3)nnc1-2 [SR 96108 A, 9-Fluoro-3 (2-morpholinoethylamino)-6,7-dihydro-5H-benzocyclohepta[5,6-c]pyridazine dihydrochloride]	1000	40	40000		
CCN(CC)CCNc1cc2c(nn1)-c1cc(Cl)c(Cl)cc1CCC2.Cl.Cl [SR 44695 A, 9,10-Dichloro-3-(2-diethylaminoethylamino)-6,7-dihydro-5H-benzocyclohepta[5,6-c]pyridazine dihydrochloride]	450	10	4500		
CCCCN(CCCC)CCNc1cc2c(nn1)-c1cc(C)c(C)cc1CCC2 [SR 44706 A]	3600	8	30000		

Now from value to compound, other results behind:

IC50 [1] [nM]	r = (M2 /M1) [1]	IC50 [2] [nM]	ED50 [3, 4] [mg/kg]	Compound	ED50 [3] [mg/kg]
			10	OCCNCCNc1cc2c(nn1)-c1ccccc1CCC2 [SR 95819 A, 3-[2-(2-hydroxyethylamino)ethylamino]-6,7-dihydro-5H-benzocyclohepta[5,6-c]pyridazine]	
1200	42	50000	15	CN1CCC(Nc2cc3c(nn2)-c2ccccc2CCC3)CC1 [SR 96093 A, 3-(1-Methylpiperidin-4-yl)amino]-6,7-dihydro-5H-benzocyclohepta[5,6-c]pyridazine dihydrochloride]	
			3	Cc1cc2c(cc1C)-c1nnc(NCCN3CCCC3)cc1CCC2 [SR 44650 A]	
700	10	6500		CN(C)CCNc1cc2c(nn1)-c1cc(Cl)c(Cl)cc1CCC2 [SR 44696 A]	
200	10	2000		CCN(CC)CCNc1cc2c(nn1)-c1cc(N)ccc1CCC2 [SR 95776 A, 10-Amino-3-(Z-diethylaminoethylamino)-6,7-dihydro-5H-benzocyclohepta[5,6-c]pyridazine dihydrochloride]	
			2	c1ccc2c(c1)CCCc1cc(NCCCN3CCOCC3)nnc1-2 [SR 95817 A]	
3000	14	43000		Cc1cc2ccccc2c2nnc(NCCN3CCOCC3)cc12 [SR 96057 A, 5-3-(2-morpholinoethylamino)benzo[h]cinnoline dihydrochloride]	
			3	O=C1CN(CCNc2cc3c(nn2)-c2ccccc2CCC3)CCO1 [SR 95696 A, 3-Z-(2-Oxomorpholino)ethylamino]-6,7-dihydro-5H-benzocyclohepta[5,6-c]pyridazine hydrochloride]	
180	16	3000		Clc1cc2c(cc1Cl)-c1nnc(NCCN3CCCCC3)cc1CCC2 [SR 44705 A]	
150	24	3600		c1ccc2c(c1)CCCc1cc(NCCN3CCCCC3)nnc1-2 [SR 44694 A]	
300	10	3000		CC(C)N(CCNc1cc2c(nn1)-c1cc([N+](=O)[O-])ccc1CCC2)C(C)C [SR 44697 A]	
